ChEMBL document CHEMBL1201861, “Genomics of Drug Sensitity in Cancer screening data, Wellcome Trust Sanger Institute”

Assays:
Assay in all cases: cells
[1] = tested on: CW-2; assay type: functional, cell-based, Homo sapiens; conditions: Homo sapiens, CW-2;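 also: growth inhibition of CW-2 cells, read out by a cell viability assay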
Description: SANGER: Inhibition of human CW-2 cell growth in a cell viability assay.

[2] = tested on: D-502MG; assay type: functional, cell-based, Homo sapiens; conditions: Homo sapiens, D-502MG
Description: SANGER: Inhibition of human D-502MG cell growth in a cell viability assay.

[3] = tested on: DMS-114; assay type: functional, cell-based, Homo sapiens; conditions: Homo sapiens, DMS-114
[4] = tested on: DMS-79; assay type: functional, cell-based; conditions: Homo sapiens;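 also: growth inhibition measured with a cell viability assay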
Description: SANGER: Inhibition of human DMS-79 cell growth in a cell viability assay.

[5] = tested on: EM-2; assay type: functional, cell-based; conditions: Homo sapiens;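 also: growth inhibition of EM-2 cells, read out with a cell viability assay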
Description: SANGER: Inhibition of human EM-2 cell growth in a cell viability assay.

[6] = tested on: ES3; assay type: functional, cell-based, Homo sapiens; conditions: Homo sapiens, ES3;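 also: growth inhibition of ES3 cells, read out with a cell viability assay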
Description: SANGER: Inhibition of human ES3 cell growth in a cell viability assay.

[7] = tested on: EW-3; assay type: functional, cell-based; conditions: Homo sapiens;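 also: cell viability assay read-out, IC50 reflects inhibition of growth of the EW-3 cells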
Description: SANGER: Inhibition of human EW-3 cell growth in a cell viability assay.

[8] = tested on: FaDu; assay type: functional, cell-based, Homo sapiens; conditions: Homo sapiens, FaDu;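 also: cell viability readout of growth inhibition in FaDu cells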
Description: SANGER: Inhibition of human FADU cell growth in a cell viability assay.

[9] = tested on: G-402; assay type: functional, cell-based, Homo sapiens; conditions: Homo sapiens, G-402
Description: SANGER: Inhibition of human G-402 cell growth in a cell viability assay.

[10] = tested on: HCC1954; assay type: functional, cell-based, Homo sapiens; conditions: Homo sapiens, HCC1954;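 also: growth inhibition of human HCC1954 cells, read out with a cell viability assay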
Description: SANGER: Inhibition of human HCC1954 cell growth in a cell viability assay.

[11] = tested on: HH; assay type: functional, cell-based; conditions: Homo sapiens
Description: SANGER: Inhibition of human HH cell growth in a cell viability assay.

[12] = tested on: HuTu80; assay type: functional, cell-based, Homo sapiens, HUTU-80; conditions: Homo sapiens, HuTu80;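 also: growth inhibition of HuTu80 human cells, determined with a cell viability readout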
Description: SANGER: Inhibition of human HUTU-80 cell growth in a cell viability assay.

[13] = tested on: JEG-3; assay type: functional, cell-based, Homo sapiens; conditions: Homo sapiens, JEG-3;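 also: growth inhibition of human JEG-3 cells, read out with a cell viability assay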
Description: SANGER: Inhibition of human JEG-3 cell growth in a cell viability assay.

[14] = tested on: KY821; assay type: functional, cell-based; conditions: Homo sapiens;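 also: growth inhibition of human KY821 cells, read out by a cell viability assay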
Description: SANGER: Inhibition of human KY821 cell growth in a cell viability assay.

[15] = tested on: LB831-BLC; assay type: functional, cell-based, Homo sapiens; conditions: Homo sapiens, LB831-BLC;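 also: growth inhibition of LB831-BLC cells, read out with a cell viability assay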
Description: SANGER: Inhibition of human LB831-BLC cell growth in a cell viability assay.

[16] = tested on: LS-1034; assay type: functional, cell-based, Homo sapiens; conditions: Homo sapiens, LS-1034
Description: SANGER: Inhibition of human LS-1034 cell growth in a cell viability assay.

[17] = tested on: M14; assay type: functional, cell-based, Homo sapiens; conditions: Homo sapiens, M14;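 also: growth inhibition of M14 cells, read out with a cell viability assay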
Description: SANGER: Inhibition of human M14 cell growth in a cell viability assay.

[18] = tested on: MDA-MB-175-VII; assay type: functional, cell-based, Homo sapiens; conditions: Homo sapiens, MDA-MB-175-VII
[19] = tested on: MLMA; assay type: functional, cell-based, Homo sapiens; conditions: Homo sapiens, MLMA;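 also: growth inhibition of MLMA cells (human), determined through a cell viability readout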
Description: SANGER: Inhibition of human MLMA cell growth in a cell viability assay.

[20] = tested on: MMAC-SF; assay type: functional, cell-based, Homo sapiens; conditions: Homo sapiens, MMAC-SF;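 also: growth inhibition of human MMAC-SF cells, read out with a cell viability assay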
Description: SANGER: Inhibition of human MMAC-SF cell growth in a cell viability assay.

[21] = tested on: MV4-11; assay type: functional, cell-based, MV-4-11; conditions: Homo sapiens;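 also: cell viability readout measuring growth inhibition of human MV-4-11 cells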
Description: SANGER: Inhibition of human MV-4-11 cell growth in a cell viability assay.

[22] = tested on: Mo; assay type: functional, cell-based; conditions: Homo sapiens
Description: SANGER: Inhibition of human Mo-T cell growth in a cell viability assay.

[23] = tested on: NB10; assay type: functional, cell-based, Homo sapiens; conditions: Homo sapiens, NB10;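 also: growth inhibition of NB10 cells, read out by a cell viability assay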
Description: SANGER: Inhibition of human NB10 cell growth in a cell viability assay.

[24] = tested on: NB13; assay type: functional, cell-based, Homo sapiens; conditions: Homo sapiens, NB13;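 also: cell viability readout measuring growth inhibition of human NB13 cells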
Description: SANGER: Inhibition of human NB13 cell growth in a cell viability assay.

[25] = tested on: NCI-H1092; assay type: functional, cell-based; conditions: Homo sapiens;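 also: cell growth inhibition measured with a cell viability assay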
Description: SANGER: Inhibition of human NCI-H1092 cell growth in a cell viability assay.

[26] = tested on: NCI-H1155; assay type: functional, cell-based; conditions: Homo sapiens;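 also: cell growth inhibition measured by a viability assay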
Description: SANGER: Inhibition of human NCI-H1155 cell growth in a cell viability assay.

[27] = tested on: NCI-H1437; assay type: functional, cell-based, Homo sapiens; conditions: Homo sapiens, NCI-H1437;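 also: growth inhibition of human NCI-H1437 cells, read out by a cell viability assay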
Description: SANGER: Inhibition of human NCI-H1437 cell growth in a cell viability assay.

[28] = tested on: NCI-H1581; assay type: functional, cell-based, Homo sapiens; conditions: Homo sapiens, NCI-H1581;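 also: cell growth inhibition read out by a viability assay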
Description: SANGER: Inhibition of human NCI-H1581 cell growth in a cell viability assay.

[29] = tested on: NCI-H209; assay type: functional, cell-based; conditions: Homo sapiens;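 also: growth inhibition of human NCI-H209 cells, measured by a cell viability assay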
Description: SANGER: Inhibition of human NCI-H209 cell growth in a cell viability assay.

[30] = tested on: NCI-H2170; assay type: functional, cell-based, Homo sapiens; conditions: Homo sapiens, NCI-H2170;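 also: cell viability assay measuring growth inhibition of human NCI-H2170 cancer cells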
Description: SANGER: Inhibition of human NCI-H2170 cell growth in a cell viability assay.

[31] = tested on: SNU1; assay type: functional, cell-based; conditions: Homo sapiens;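 also: growth inhibition of human NCI-SNU-1 cells, measured with a cell viability assay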
Description: SANGER: Inhibition of human NCI-SNU-1 cell growth in a cell viability assay.

[32] = tested on: NEC8; assay type: functional, cell-based, Homo sapiens; conditions: Homo sapiens, NEC8;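 also: growth inhibition of human NEC8 cells, read out by a cell viability assay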
Description: SANGER: Inhibition of human NEC8 cell growth in a cell viability assay.

[33] = tested on: OE19; assay type: functional, cell-based, Homo sapiens; conditions: Homo sapiens, OE19;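 also: growth inhibition of OE19 cells, measured through a cell viability read-out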
Description: SANGER: Inhibition of human OE19 cell growth in a cell viability assay.

[34] = tested on: P30-OHK; assay type: functional, cell-based; conditions: Homo sapiens;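 also: growth inhibition of the P30-OHK cell line, read out with a cell viability assay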
Description: SANGER: Inhibition of human P30-OHK cell growth in a cell viability assay.

[35] = tested on: PANC-03-27; assay type: functional, cell-based, Homo sapiens; conditions: Homo sapiens, PANC-03-27
Description: SANGER: Inhibition of human PANC-03-27 cell growth in a cell viability assay.

[36] = tested on: RCM-1; assay type: functional, cell-based, Homo sapiens; conditions: Homo sapiens, RCM-1;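 also: growth inhibition of the RCM-1 line, determined with a cell viability readout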
Description: SANGER: Inhibition of human RCM-1 cell growth in a cell viability assay.

[37] = tested on: Ramos-2G6-4C10; assay type: functional, cell-based; conditions: Homo sapiens;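 also: growth inhibition of the cell line, measured by a cell viability read-out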
Description: SANGER: Inhibition of human Ramos-2G6-4C10 cell growth in a cell viability assay.

[38] = tested on: SCC-4; assay type: functional, cell-based, Homo sapiens; conditions: Homo sapiens, SCC-4;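 also: growth inhibition of human SCC-4 cells, read out as cell viability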
Description: SANGER: Inhibition of human SCC-4 cell growth in a cell viability assay.

[39] = tested on: SW1463; assay type: functional, cell-based, Homo sapiens; conditions: Homo sapiens, SW1463;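 also: growth inhibition of SW1463 cells, determined with a cell viability assay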
Description: SANGER: Inhibition of human SW1463 cell growth in a cell viability assay.

[40] = tested on: SW-620; assay type: functional, cell-based, Homo sapiens; conditions: Homo sapiens, SW-620;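 also: growth inhibition of human SW-620 cells, measured by a cell viability assay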
Description: SANGER: Inhibition of human SW620 cell growth in a cell viability assay.

[41] = tested on: CWR22R; assay type: functional, cell-based, Homo sapiens; conditions: Homo sapiens, 22Rv1;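 also: growth inhibition of 22Rv1 cells, read out with a cell viability assay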
Description: SANGER: Inhibition of human 22RV1 cell growth in a cell viability assay.

[42] = tested on: 697; assay type: functional, cell-based; conditions: Homo sapiens
Description: SANGER: Inhibition of human 697 cell growth in a cell viability assay.

[43] = tested on: 8-MG-BA; assay type: functional, cell-based, Homo sapiens; conditions: Homo sapiens, 8-MG-BA;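 also: growth inhibition of 8-MG-BA cells, read out with a cell viability assay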
Description: SANGER: Inhibition of human 8-MG-BA cell growth in a cell viability assay.

[44] = tested on: AM-38; assay type: functional, cell-based, Homo sapiens; conditions: Homo sapiens, AM-38;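 also: growth inhibition of AM-38 cells of human origin, read out by a cell viability assay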
Description: SANGER: Inhibition of human AM-38 cell growth in a cell viability assay.

[45] = tested on: BE-13; assay type: functional, cell-based; conditions: Homo sapiens;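 also: growth inhibition of human BE-13 cells, measured with a cell viability assay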
Description: SANGER: Inhibition of human BE-13 cell growth in a cell viability assay.

[46] = tested on: BHY; assay type: functional, cell-based, Homo sapiens; conditions: Homo sapiens, BHY;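 also: cell growth inhibition read out by a viability assay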
Description: SANGER: Inhibition of human BHY cell growth in a cell viability assay.

[47] = tested on: BT-474; assay type: functional, cell-based, Homo sapiens; conditions: Homo sapiens, BT-474
Description: SANGER: Inhibition of human BT-474 cell growth in a cell viability assay.

[48] = tested on: BXPC-3; assay type: functional, cell-based, Homo sapiens; conditions: Homo sapiens, BXPC-3;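 also: growth inhibition of human BxPC-3 cells, read out by a cell viability assay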
Description: SANGER: Inhibition of human BxPC-3 cell growth in a cell viability assay.

[49] = tested on: C2BBe1; assay type: functional, cell-based, Homo sapiens; conditions: Homo sapiens, C2BBe1;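 also: growth inhibition of C2BBe1 cells, read out through a viability assay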
Description: SANGER: Inhibition of human C2BBe1 cell growth in a cell viability assay.

[50] = tested on: U-87 MG; assay type: functional, cell-based, U-87MG ATCC; conditions: Homo sapiens;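 also: growth inhibition of the cells measured with a viability assay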
Description: SANGER: Inhibition of human U-87-MG cell growth in a cell viability assay.

[51] = tested on: U-251; assay type: functional, cell-based, Homo sapiens; conditions: Homo sapiens, U-251;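 also: growth inhibition of human U-251 cells, read out through a cell viability assay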
Description: SANGER: Inhibition of human U251 cell growth in a cell viability assay.

[52] = tested on: UMC-11; assay type: functional, cell-based, Homo sapiens; conditions: Homo sapiens, UMC-11;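 also: growth inhibition of UMC-11 cells, read out with a cell viability assay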
Description: SANGER: Inhibition of human UMC-11 cell growth in a cell viability assay.

[53] = tested on: COLO-684; assay type: functional, cell-based; conditions: Homo sapiens
Description: SANGER: Inhibition of human COLO-684 cell growth in a cell viability assay.

Cn1cncc1[C@@](N)(c1ccc(Cl)cc1)c1ccc2c(c1)c(-c1cccc(Cl)c1)cc(=O)n2C [TIPIFARNIB]
IC50 [1]: > 16 µM | IC50 [2]: > 16 µM | IC50 [3]: > 16 µM | IC50 [4]: > 16 µM | IC50 [5]: > 16 µM | IC50 [6]: 11.8 µM | IC50 [7]: > 16 µM | IC50 [8]: 8.38 µM | IC50 [9]: 2.11 µM | IC50 [10]: 14.3 µM | IC50 [11]: 0.191 µM | IC50 [12]: 0.285 µM | IC50 [13]: 8.61 µM | IC50 [14]: > 16 µM | IC50 [15]: 2.64 µM | IC50 [16]: 2.46 µM | IC50 [17]: > 16 µM | IC50 [18]: > 16 µM | IC50 [19]: > 16 µM | IC50 [20]: 13.7 µM | IC50 [21]: 0.733 µM | IC50 [22]: > 16 µM | IC50 [23]: 11.7 µM | IC50 [24]: 4.62 µM | IC50 [25]: > 16 µM | IC50 [26]: > 16 µM | IC50 [27]: 8.21 µM | IC50 [28]: > 16 µM | IC50 [29]: > 16 µM | IC50 [30]: 8.39 µM | IC50 [31]: > 16 µM | IC50 [32]: > 16 µM | IC50 [33]: 5.75 µM | IC50 [34]: 0.264 µM | IC50 [35]: 5.73 µM | IC50 [36]: > 16 µM | IC50 [37]: > 16 µM | IC50 [38]: 1.33 µM | IC50 [39]: > 16 µM | IC50 [40]: 0.482 µM | IC50 [41]: 3.22 µM | IC50 [42]: 1.28 µM | IC50 [43]: 2.13 µM | IC50 [44]: > 16 µM | IC50 [45]: 4.94 µM | IC50 [46]: 1.05 µM | IC50 [47]: > 16 µM | IC50 [48]: 4.33 µM | IC50 [49]: > 16 µM | IC50 [50]: > 16 µM | IC50 [51]: 7.09 µM | IC50 [52]: > 16 µM | IC50 [53]: 5.71 µM

CCC1=C[C@@H]2CN(C1)Cc1c([nH]c3ccccc13)[C@@](C(=O)OC)(c1cc3c(cc1OC)N(C)[C@H]1[C@@](O)(C(=O)OC)[C@H](OC(C)=O)[C@]4(CC)C=CCN5CC[C@]31[C@@H]54)C2 [VINORELBINE]
IC50 [1]: > 0.064 µM | IC50 [2]: > 0.064 µM | IC50 [3]: > 0.064 µM | IC50 [4]: > 0.064 µM | IC50 [5]: 0.0448 µM | IC50 [6]: 0.0281 µM | IC50 [7]: > 0.064 µM | IC50 [8]: 0.0485 µM | IC50 [9]: 0.0321 µM | IC50 [10]: 0.0101 µM | IC50 [11]: 0.00888 µM | IC50 [12]: 0.00218 µM | IC50 [13]: 0.0141 µM | IC50 [14]: > 0.064 µM | IC50 [15]: 0.0292 µM | IC50 [16]: > 0.064 µM | IC50 [17]: 0.0211 µM | IC50 [18]: > 0.064 µM | IC50 [19]: 0.0369 µM | IC50 [20]: 0.0205 µM | IC50 [21]: 0.0104 µM | IC50 [22]: > 0.064 µM | IC50 [23]: > 0.064 µM | IC50 [24]: 0.00501 µM | IC50 [25]: 0.0581 µM | IC50 [26]: > 0.064 µM | IC50 [27]: 0.00711 µM | IC50 [28]: 0.0372 µM | IC50 [29]: 0.0508 µM | IC50 [30]: 0.0116 µM | IC50 [31]: 0.0327 µM | IC50 [32]: 0.0139 µM | IC50 [33]: 0.0132 µM | IC50 [34]: 0.0101 µM | IC50 [35]: 0.00595 µM | IC50 [36]: > 0.064 µM | IC50 [37]: 0.00445 µM | IC50 [38]: 0.00258 µM | IC50 [39]: > 0.064 µM | IC50 [40]: 0.00852 µM | IC50 [41]: 0.00879 µM | IC50 [42]: 0.00423 µM | IC50 [43]: 0.00337 µM | IC50 [44]: 0.0335 µM | IC50 [45]: 0.0124 µM | IC50 [46]: 0.00995 µM | IC50 [47]: 0.0285 µM | IC50 [48]: 0.0039 µM | IC50 [49]: > 0.064 µM | IC50 [50]: 0.0271 µM | IC50 [51]: 0.00689 µM | IC50 [52]: > 0.064 µM | IC50 [53]: 0.0137 µM
